Experimental data as given in patent publication US6413982B1, “4-substituted quinoline derivatives” (Neurogen Corporation, priority 1999, dated 2002).

Molecular target: T1, NK-3 receptor (Homo sapiens, UniProt P29371)
T1 construct: expressed in transfected cells; total cellular membranes
T1 sequence (P29371 1-465): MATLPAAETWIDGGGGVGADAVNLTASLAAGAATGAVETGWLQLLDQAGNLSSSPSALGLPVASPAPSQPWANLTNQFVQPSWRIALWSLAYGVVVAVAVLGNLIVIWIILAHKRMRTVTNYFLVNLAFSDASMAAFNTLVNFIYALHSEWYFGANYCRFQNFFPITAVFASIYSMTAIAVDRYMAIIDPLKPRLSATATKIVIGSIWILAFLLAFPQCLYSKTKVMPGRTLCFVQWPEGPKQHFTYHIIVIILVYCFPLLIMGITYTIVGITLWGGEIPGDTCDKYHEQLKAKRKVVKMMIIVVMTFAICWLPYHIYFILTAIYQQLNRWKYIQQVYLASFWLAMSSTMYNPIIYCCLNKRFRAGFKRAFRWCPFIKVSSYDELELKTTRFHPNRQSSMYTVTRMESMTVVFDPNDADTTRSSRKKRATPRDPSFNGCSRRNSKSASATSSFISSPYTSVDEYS
Assay: Assay for NK-3 receptor binding activity
Conditions: displacement of 125I-methylPhe7-neurokinin B, membranes of CHO cells expressing cloned human NK-3 receptor, 2 hours at 4° C.
Description: The following assay is a standard assay for NK-3 receptor binding activity. Assays are performed as described in Krause et al (Proc. Natl. Acad. Sci. USA 94: 310-315, 1997). The NK-3 receptor complementary DNA is cloned from human hypothalamic RNA using standard procedures. The receptor cDNA is inserted into the expression vector pM^2 to transfect the mammalian Chinese hamster ovary cell line, and a stably expressing clonal cell line is isolated, characterized and used for the current experiments. Cells are grown in minimal essential medium alpha containing 10% fetal bovine serum and 250 μg/ml G418. Cells are liberated from cell culture plates with No-zyme (PBS base, JRH Biosciences), and harvested by low speed centrifugation. […]
Receptor binding assays contain a total volume of 200 μl containing 50 μg membrane protein, 0.05-0.15 nM 125I-methylPhe7-neurokinin B, drug or blocker in TBS containing 1.0 mg/ml bovine serum albumen, 0.2 mg/ml bacitracin, 20 μg/ml leupeptin and 20 μg/ml chymostatin. […] After filtration of the incubation mixture, filters are rinsed 4 times with ice-cold TBS containing 0.01% sodium dodecyl sulfate and radioactivity is quantitated in a β-plate scintillation counter. […] Data are collected in duplicate determinations, averaged, and the percent inhibition of total specific binding is calculated. […]

| IC50 [nM] | Compound |
| --- | --- |
| 19 | CCC1(c2ccccc2)CN=C(c2c(OC)c(-c3ccccc3)nc3ccccc23)N1 (centres unmarked) [Example 1, 5-Ethyl-5-phenyl-2-(3-methoxy-2-phenylquinolin-4-yl)-imidazoline] |
| 0.3 | CCC1(c2ccccc2)CN=C(c2c(C)c(-c3ccccc3)nc3ccccc23)N1 (centres unmarked) [Example 2] |
